Read-outs that look alike come from different tables or passages of the source. Residues, ends and D or L forms follow the SMILES beside them. *: point of attachment. Biotin = O=C1N[C@H]2[C@H](CS[C@H]2CCCCC(=O)*)N1
Columns and labels:
[1] = molecular target: T1, soluble ectodomain of sortilin-6his (Homo sapiens, UniProt Q99523, V650M); assay: MST binding to soluble ectodomain of sortilin-6his
T1 construct: the soluble ectodomain of sortilin-6his is measured by microscale thermophoresis (MST)

HEK293/sortilin cells [2] = assay: Remaining TNFalpha in conditioned media (ELISA); type: cell-based; details: after 72 h, 20 nM TNFalpha; added TNFalpha (100%) subtracted remaining TNFalpha (%)
Experimental: In different experiments, HEK293/sortilin cells were incubated with compound gradient series and 20 nM TNFalpha for up to 72 h. Following incubation, remaining TNFalpha in conditioned media was evaluated using human TNF-alpha Quantikine ELISA Kit (R&D systems, DTA00D).

HEK293/sortilin cells [3] = assay: Lysosomal sorting and degradation of NA650 (microscopy, blotted lysates, leupeptin); type: cell-based; details: NA650 100 nM
Experimental: Cellular uptake of target NA650 was analyzed with fluorescence microscopy. For this assay, coverslips in 4 well plates were coated with poly-L lysine prior to seeding of HEK293/sortilin cells (25K cells/coverslip) in culture media (as described in Example 3)) and incubated overnight in cell incubator (37° C., humidified, 5% CO2). The culture media was replaced with assay media (as described in Example 3) containing NA650 (Invitrogen) (500 nM) (Thermo Fischer), a compound according to SEQ ID NO.: 147 (2 μM) and AF38469 (100 μM, MedChemExpress). The cells were incubated in a cell incubator for 4 hours before washing in dPBS (Bionordika) followed by fixation with dPBS+4% PFA (Sigma Aldrich) for 15 minutes. […] The fluorescent signal was analyzed using a laser scanning confocal microscope (LSM-800). […]
Culture medium was replaced with assay medium (DMEM (Lonza), 10% fetal bovine serum (Sigma Aldrich), 1% penicillin-streptomycin (Sigma Aldrich), 1% GlutaMAX (Gibco)) with or without NA650 (Invitrogen) (100 nM) (Thermo Fischer), peptidic bifunctional compound (300 nM) and leupeptin (80 μM) (Sigma Aldrich). […] Proteins were blotted onto a nitrocellulose membrane (Thermo Fisher), and the DyLight650 signal was detected using an iBright 1500 (Thermo Fisher). […]

[4] = molecular target: Sortilin-6His (Homo sapiens (Human)) (UniProt Q99523); assay: MST on labelled sortilin-6his ectodomain; KD score: +++ <25 nM, ++ 25-250 nM, + 250-2500 nM, 0 >2500 nM
Sequence of Sortilin-6His (Homo sapiens (Human)) (Q99523 78-755 V650M limits assumed): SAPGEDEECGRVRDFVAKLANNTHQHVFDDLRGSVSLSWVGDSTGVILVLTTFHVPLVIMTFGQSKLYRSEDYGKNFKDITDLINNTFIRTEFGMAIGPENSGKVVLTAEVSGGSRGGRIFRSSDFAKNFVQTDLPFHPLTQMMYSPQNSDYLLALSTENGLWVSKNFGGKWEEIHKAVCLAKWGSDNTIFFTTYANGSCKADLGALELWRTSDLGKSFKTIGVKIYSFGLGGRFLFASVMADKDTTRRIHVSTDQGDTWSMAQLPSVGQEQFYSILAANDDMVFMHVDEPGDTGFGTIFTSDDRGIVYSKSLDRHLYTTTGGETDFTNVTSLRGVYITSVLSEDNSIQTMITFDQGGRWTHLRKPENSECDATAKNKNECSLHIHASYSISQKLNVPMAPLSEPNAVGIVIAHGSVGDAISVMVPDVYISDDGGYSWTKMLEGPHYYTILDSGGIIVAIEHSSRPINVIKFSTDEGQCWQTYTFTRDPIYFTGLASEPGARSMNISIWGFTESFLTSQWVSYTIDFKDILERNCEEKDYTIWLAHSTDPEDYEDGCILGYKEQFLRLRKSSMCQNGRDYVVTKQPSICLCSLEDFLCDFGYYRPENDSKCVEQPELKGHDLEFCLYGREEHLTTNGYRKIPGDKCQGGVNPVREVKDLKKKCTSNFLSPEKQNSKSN

[5] = system: HEK293 cells expressing full length sortilin receptor; assay: Cellular uptake of NA650 in HEK293/sortilin cells; type: cell-based; details: 3 h incubation, 9.8 nM to 10 μM, NA650 100 nM
Experimental: Cellular uptake of NA650 was investigated in HEK293 cells expressing full length sortilin receptor (Petersen et. al.). Cells were seeded in poly-L-lysine coated 96-well plates (Perkin Elmer) (40K/well) in 50 μL culture medium (DMEM (Lonza)+10% FBS (SigmaAldrich)+1% penicillin-streptomycin (SigmaAldrich)+1% GlutaMAX (Gibco)+100 μg/mL Zeocin (Invitrogen)) and incubated overnight in cell incubator (37° C., humidified, 5% CO2).
Culture medium was replaced with assay medium (DMEM (Lonza)+10% fetal bovine serum (SigmaAldrich)+1% penicillin-streptomycin (SigmaAldrich)+1% GlutaMAX (Gibco)) containing NA650 (Invitrogen) (100 nM) (Thermo Fischer) and peptidic bifunctional compounds (9.8 nM to 10 μM). Cells were incubated for 3 h in cell incubator before they were washed in dPBS (Bionordika). The DyLight650 signal in the cell layer was detected using a fluorescence plate reader (BMG Labtech Clariostar).
Cellular uptake of NA650 was investigated in HEK293 cells expressing full length sortilin receptor using a methodology analogous to example 3.

HEK293/sortilin cells [6] = assay: Depletion of NA650 from cell culture supernatant; type: cell-based; details: for reduction in NA650 signal in cell culture supernatant: single addition, NA650 100 nM
Experimental: HEK293/sortilin cells were cultured in culture media containing DMEM (Lonza) further supplemented with 10% fetal bovine serum (Sigma), 1% GlutaMax Supplement (Gibco), penicillin-streptomycin (Thermo Fischer) and selection antibiotics 100 μg/mL Zeocin (Invitrogen). 35k cells/well were seeded in poly-L-lysine coated 96-well plates (Perkin Elmer) and allowed to incubate for 16-24 h in cell incubator (37° C., humidified, 5% CO2). Culture media were discarded, and the cells were washed with assay medium containing FluoroBright DMEM (Gibco) supplemented with 10% fetal bovine serum (Sigma) and 1% GlutaMax Supplement (Gibco). The media were discarded and replaced with assay media or assay medium containing 100 nM NA650 (Invitrogen). For wells evaluating the bifunctional compounds, the assay medium also contained concentrations ranging from 20 nM to 5 μM. After an incubation period of up to 72 h in the cell incubator the media were harvested and the presence of NA650 were evaluated by fluorescence intensity (FI) measurements of DyLight650 using a fluorescence plate reader (BMG Labtech Clariostar).
HEK293/sortilin cells (35k cells/96-well) were seeded in culture media (as described in Example 3) and incubated for 24 h in cell incubator. Culture media were discarded, and the cells were washed with assay medium containing FluoroBright DMEM (Gibco) and supplements as described in Example 3, before incubation in assay medium containing 100 nM NA650 and small molecule bifunctional compounds (20 nM to 5 μM). After an incubation period of up to 72 h, the media were harvested and the presence of NA650 were evaluated by FI measurements of DyLight650 using a fluorescence plate reader (BMG Labtech Clariostar).

[7] = molecular target: streptavidin, bifunctional compound and sortilin-6his (UniProt P22629+Q99523, V650M); assay: TR-FRET ternary complex formation streptavidin / bifunctional peptide / sortilin-6his; details: Table 2; […] incubation, HTRF ratio 665/620 nm
Experimental: In these experiments, the compounds of interest were titrated over 24-point in a 384-well TTP LVDS plate (SPT Labtech) to a final buffer composition of 50 mM Bis-Tris Propane pH 8, 50 mM NaCl, 0.05% Tween20, with or without 10% DMSO using a Mosquito LV pipetting robot (SPT Labtech).
The reaction was allowed to incubate for 2.5 hours at room temperature, at which point the HTRF signal ratio at 665/620 nm was determined using a plate reader (ClarioStar, BMG Labtech). All reactions were run in triplicates and data was represented as HTRF ratio as a function of bifunctional compound concentration.

[8] = system: HEK293 cells expressing full length sortilin receptor; assay: Cellular uptake of AlexaFluor488-anti-DNP antibody; type: cell-based; details: Table 7; AlexaFluor488-anti-DNP antibody (100 nM), 3 h, DNP warhead compounds
Excerpt: In this example, the small molecule degraders consist of a sortilin binder linked to warhead DNP to target anti-DNP antibodies (BF001 to BF016)
Cellular uptake of AlexaFluor488-anti-DNP antibody (Thermo Fisher) was investigated in HEK293 cells expressing full length sortilin receptor in a methodology analogous to example 3.

[9] = system: untransfected HEK239 cells; assay: Cellular uptake of target in untransfected HEK293 cells (Example 22); type: cell-based; details: HEK293 cells without sortilin, 3 h, 2 nM to 2 μM, corresponding targets
Excerpt: Cellular uptake of target was investigated in untransfected HEK239 cells and HEK293 cells expressing sortilin receptor in a methodology analogous to example 3.

Sortilin-6His [10] = molecular target: T2, Sortilin-6His (Homo sapiens (Human), UniProt Q99523 78-755); assay: MST, fluorescent sortilin-6his (100 nM), peptide titrated
T2 construct: In MST it was labelled non-covalently with RED-tris-NTA; also called soluble ectodomain of sortilin-6his; fluorescent sortilin-6his
T2 sequence (Q99523 78-755 V650M limits assumed): as above

Sortilin-6His [11] = molecular target: T2, Sortilin-6His; assay: MST on labelled sortilin-6his ectodomain; KD score: ++ <100 nM, + 100-2000 nM
Sortilin-6His [12] = molecular target: T2, Sortilin-6His; assay: TR-FRET (HTRF) ternary complex streptavidin-d2 / biotin-peptide / sortilin-6His; AUC score: + <5000, ++ >5000

T1 sequence (Q99523 with tags, fused parts or gaps V650M): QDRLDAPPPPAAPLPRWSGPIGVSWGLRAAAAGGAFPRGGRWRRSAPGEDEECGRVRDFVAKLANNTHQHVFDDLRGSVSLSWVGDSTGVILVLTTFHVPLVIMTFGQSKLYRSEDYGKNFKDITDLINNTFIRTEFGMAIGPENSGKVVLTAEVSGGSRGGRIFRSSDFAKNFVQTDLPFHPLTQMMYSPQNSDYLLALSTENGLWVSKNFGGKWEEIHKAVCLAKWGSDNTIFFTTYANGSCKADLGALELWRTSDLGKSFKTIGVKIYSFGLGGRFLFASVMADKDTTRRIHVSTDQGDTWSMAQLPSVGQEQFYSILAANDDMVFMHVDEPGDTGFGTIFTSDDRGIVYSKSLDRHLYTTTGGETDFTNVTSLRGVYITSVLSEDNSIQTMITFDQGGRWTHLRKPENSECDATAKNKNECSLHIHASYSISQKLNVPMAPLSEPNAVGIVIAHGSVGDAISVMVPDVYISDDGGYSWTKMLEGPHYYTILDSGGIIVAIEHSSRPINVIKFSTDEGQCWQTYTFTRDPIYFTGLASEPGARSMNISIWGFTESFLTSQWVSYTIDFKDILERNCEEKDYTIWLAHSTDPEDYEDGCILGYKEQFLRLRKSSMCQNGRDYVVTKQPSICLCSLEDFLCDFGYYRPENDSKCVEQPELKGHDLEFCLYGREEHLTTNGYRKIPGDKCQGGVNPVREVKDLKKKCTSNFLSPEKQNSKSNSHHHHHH

With `C[C@@H]1CN(c2ncc(-c3ccc4c(n3)N(Cc3cccnc3C#N)C(C)(C)C4=O)cn2)CCN1C(=O)CNC(=O)CCCCCCCCCNC(=O)c1cccc(Oc2ccc(C(=O)N[C@@H](CCC(C)(C)C)C(=O)O)cn2)c1` [BF043, (2S)-2-[[6-[3-[[10-[[2-[(2R)-4-[5-[1-[(2-cyano-3-pyridyl)methyl]-2,2-dimethyl-3-oxo-pyrrolo[2,3-b]pyridin-6-yl]pyrimidin-2-yl]-2-methyl-piperazin-1-yl]-2-oxo-ethyl]amino]-10-oxo-decyl]carbamoyl]phenoxy]pyridine-3-carbonyl]amino]-5,5-dimethyl-hexanoic acid] the Kd ([1]; Table 4, small molecule bifunctional compounds, MST, read-out: KD score, binding to sortilin (Kd)) was under 1 nM and the “Maximum clearance rates of TNFalpha from conditioned media” value (HEK293/sortilin cells [2]) was 63.3%.

In the case of `CC(C)(C)CCC(NC(=O)c1ccc(Oc2cccc(OCCOCCOCCOCCOCCOCCNC(=O)CCCC[C@@H]3SC[C@@H]4NC(=O)N[C@@H]43)c2)nc1)C(=O)O` (stereo partly drawn) [B025], the “NA650 band in lysate” value (HEK293/sortilin cells [3]; 24 h incubation, compound 300 nM) is reported as “visible in cells incubated with B025 alone”.

With “H-LQLL-OH (as printed in Table 3 for SEQ ID NO.: 30) (peptide)” the KD [4] was 25 to 250 nM.

For `CC(C)C[C@H](NC(=O)[C@H](CC(C)C)NC(=O)[C@H](CCC(N)=O)NC(=O)[C@H](CCCNC(=N)N)NC(=O)CNC(=O)CNC(=O)[C@H](CO)NC(=O)CNC(=O)CNC(=O)CNC(=O)CNC(=O)[C@H](CO)NC(=O)CNC(=O)CNC(=O)CNC(=O)CNC(=O)[C@H](CO)NC(=O)CNC(=O)CNC(=O)CCCC[C@@H]1SC[C@@H]2NC(=O)N[C@@H]21)C(=O)O` [SEQ ID NO.: 147] (Biotin-GGSGGGGSGGGGSGGRQLL-OH), the Kd ([1]; Table 1, biotin-linker-peptide bifunctional compounds, MST, read-out: KD score, binding to sortilin (Kd)) was 100 to 2000 nM, the “cell associated FI signal, response to concentration series (in words)” value [5] was “bell-shaped response” and the “subcellular localization of internalized NA650 (fluorescence microscopy)” value (HEK293/sortilin cells [3]; 2 h incubation, bifunctional molecule 300 nM, anti-LAMP1 staining) was “co-localizes with lysosomal marker”. For the same molecule, the “reduction in NA650 signal in cell culture supernatant” value (“reduction in NA650 signal” for short) (HEK293/sortilin cells [6]; after 24 h) was 16%, the “reduction in NA650 signal” value (HEK293/sortilin cells [6]; after 48 h) was 46% and the “reduction in NA650 signal” value (HEK293/sortilin cells [6]; after 72 h) was 61%. The “degrader concentration of highest uptake of target” value (HEK293/sortilin cells [6]; all timepoints (24, 48, 72 h)) was 312 nM and the “AUC score, TR-FRET measurements of ternary complex formation” value [7] was “++ (AUC > 5000)”.

In the case of `CC(C)(C)CC[C@H](NC(=O)c1ccc(Oc2cccc3c(C(=O)NCCCNC(=O)CCOCCOCCOCCNc4ccc([N+](=O)[O-])cc4[N+](=O)[O-])cccc23)nc1)C(=O)O` [BF005, (2S)-2-[[6-[5-[3-[3-[2-[2-[2-(2,4-dinitroanilino)ethoxy]ethoxy]ethoxy]propanoylamino]propylcarbamoyl]-1-naphthyl]oxy]pyridine-3-carbonyllamino]-5,5-dimethyl-hexanoic acid], the Kd [1] is reported as 1 to 10 nM, the “AUC score, target internalization” value [8] is reported as “++ (AUC > 10.000)” and the “cell associated FI response to increasing degrader concentration” value [9] is reported as “No response”.

B1: Biotin-GGSGGGGSGGGGSGGRQLL-OH (peptide)
peptide: Biotin-GGSGGGGSGGGGSGGRQLL-OH
SMILES: CC(C)C[C@H](NC(=O)[C@H](CC(C)C)NC(=O)[C@H](CCC(N)=O)NC(=O)[C@H](CCCNC(=N)N)NC(=O)CNC(=O)CNC(=O)[C@H](CO)NC(=O)CNC(=O)CNC(=O)CNC(=O)CNC(=O)[C@H](CO)NC(=O)CNC(=O)CNC(=O)CNC(=O)CNC(=O)[C@H](CO)NC(=O)CNC(=O)CNC(=O)CCCC[C@@H]1SC[C@@H]2NC(=O)N[C@@H]21)C(=O)O
notes: also called degrader
For B1, the Kd (Sortilin-6His [10]) was 703 nM, the KD (Sortilin-6His [11]) was 100 to 2000 nM and the “AUC of TR-FRET (HTRF ratio vs compound concentration) for ternary complex formation” value (Sortilin-6His [12]) was over 5000 auc.
